Series [1] concerns the target C-terminal pentapeptide of the scaffolding protein filamin A (Homo sapiens, UniProt P21333). The settings on record: Wang, Frankfurt, & Burns, 2008; cited from earlier work.
The subject of series [2] is patients with breakthrough depression (BTD). As to the kind of experiment: Clinical testing of low dose naltrexone treatment of depression (double-blind, placebo-controlled). The class given is in vivo, human.
Series [3] relates to Restless Leg Syndrome (RLS). The following applies: RLS treated with D2/D3 agonists pramipexole or ropinirole; Philips Respironics Actigraphy; see U.S. Ser. No. 12/603,235; cited from earlier work.
The conditions of series [4]: low dose naltrexone (e.g. less than 10 mg); cited from earlier work.
The subject of a further series is patients with depression. The experiment in a line: Patient responses to low dose naltrexone treatment of depression (case reports). Here is the method: Patient #1: A middle aged person suffered severe depression with recurrent major depressive episodes. […] The former pharmacologic regimen was otherwise unchanged.
Patient #3: A patient presented with treatment-resistant depression. The patient was also diagnosed with Attention Deficit Disorder. The patient initially was treated with s-citalopram 15 mg, augmented by dextro-amphetamine.
Patient #4: A patient weighing approximately 60 kg had suffered severe unremitting depression. […] Subsequently, the patient was prescribed 5 mg naltrexone daily with continuation of s-citalopram.
They were being treated with buproprion XL 300 mg, augmented with melatonin 3 mg and N-acetyl-cysteine 1200 mg.
Patient #6: A patient with multiple major depression episodes, anhedonia, apathy, low energy and poor sleep was being treated with duloxetine 60 mg and buproprion 75 mg, and mirtazpine 15 mg. […] They also called and e-mailed multiple times per day. They were being treated with Effexor XR 75 mg QHS, Xanax 0.5 mg, and Clonazepam 1.5 mg.
The patient was then co-administered 1 mg daily of naltrexone with pramipexole.
Patient #9: A middle-age person suffered severe depression with recurrent major depressive episodes and social anxiety. They were being treated with Adderall 10 mg, levothyroxine 50 mcg, and propranol 10 mg.

Each structure is given as a SMILES string. Some results are limits rather than exact numbers.

Sequence of C-terminal pentapeptide of the scaffolding protein filamin A (P21333 whole entry): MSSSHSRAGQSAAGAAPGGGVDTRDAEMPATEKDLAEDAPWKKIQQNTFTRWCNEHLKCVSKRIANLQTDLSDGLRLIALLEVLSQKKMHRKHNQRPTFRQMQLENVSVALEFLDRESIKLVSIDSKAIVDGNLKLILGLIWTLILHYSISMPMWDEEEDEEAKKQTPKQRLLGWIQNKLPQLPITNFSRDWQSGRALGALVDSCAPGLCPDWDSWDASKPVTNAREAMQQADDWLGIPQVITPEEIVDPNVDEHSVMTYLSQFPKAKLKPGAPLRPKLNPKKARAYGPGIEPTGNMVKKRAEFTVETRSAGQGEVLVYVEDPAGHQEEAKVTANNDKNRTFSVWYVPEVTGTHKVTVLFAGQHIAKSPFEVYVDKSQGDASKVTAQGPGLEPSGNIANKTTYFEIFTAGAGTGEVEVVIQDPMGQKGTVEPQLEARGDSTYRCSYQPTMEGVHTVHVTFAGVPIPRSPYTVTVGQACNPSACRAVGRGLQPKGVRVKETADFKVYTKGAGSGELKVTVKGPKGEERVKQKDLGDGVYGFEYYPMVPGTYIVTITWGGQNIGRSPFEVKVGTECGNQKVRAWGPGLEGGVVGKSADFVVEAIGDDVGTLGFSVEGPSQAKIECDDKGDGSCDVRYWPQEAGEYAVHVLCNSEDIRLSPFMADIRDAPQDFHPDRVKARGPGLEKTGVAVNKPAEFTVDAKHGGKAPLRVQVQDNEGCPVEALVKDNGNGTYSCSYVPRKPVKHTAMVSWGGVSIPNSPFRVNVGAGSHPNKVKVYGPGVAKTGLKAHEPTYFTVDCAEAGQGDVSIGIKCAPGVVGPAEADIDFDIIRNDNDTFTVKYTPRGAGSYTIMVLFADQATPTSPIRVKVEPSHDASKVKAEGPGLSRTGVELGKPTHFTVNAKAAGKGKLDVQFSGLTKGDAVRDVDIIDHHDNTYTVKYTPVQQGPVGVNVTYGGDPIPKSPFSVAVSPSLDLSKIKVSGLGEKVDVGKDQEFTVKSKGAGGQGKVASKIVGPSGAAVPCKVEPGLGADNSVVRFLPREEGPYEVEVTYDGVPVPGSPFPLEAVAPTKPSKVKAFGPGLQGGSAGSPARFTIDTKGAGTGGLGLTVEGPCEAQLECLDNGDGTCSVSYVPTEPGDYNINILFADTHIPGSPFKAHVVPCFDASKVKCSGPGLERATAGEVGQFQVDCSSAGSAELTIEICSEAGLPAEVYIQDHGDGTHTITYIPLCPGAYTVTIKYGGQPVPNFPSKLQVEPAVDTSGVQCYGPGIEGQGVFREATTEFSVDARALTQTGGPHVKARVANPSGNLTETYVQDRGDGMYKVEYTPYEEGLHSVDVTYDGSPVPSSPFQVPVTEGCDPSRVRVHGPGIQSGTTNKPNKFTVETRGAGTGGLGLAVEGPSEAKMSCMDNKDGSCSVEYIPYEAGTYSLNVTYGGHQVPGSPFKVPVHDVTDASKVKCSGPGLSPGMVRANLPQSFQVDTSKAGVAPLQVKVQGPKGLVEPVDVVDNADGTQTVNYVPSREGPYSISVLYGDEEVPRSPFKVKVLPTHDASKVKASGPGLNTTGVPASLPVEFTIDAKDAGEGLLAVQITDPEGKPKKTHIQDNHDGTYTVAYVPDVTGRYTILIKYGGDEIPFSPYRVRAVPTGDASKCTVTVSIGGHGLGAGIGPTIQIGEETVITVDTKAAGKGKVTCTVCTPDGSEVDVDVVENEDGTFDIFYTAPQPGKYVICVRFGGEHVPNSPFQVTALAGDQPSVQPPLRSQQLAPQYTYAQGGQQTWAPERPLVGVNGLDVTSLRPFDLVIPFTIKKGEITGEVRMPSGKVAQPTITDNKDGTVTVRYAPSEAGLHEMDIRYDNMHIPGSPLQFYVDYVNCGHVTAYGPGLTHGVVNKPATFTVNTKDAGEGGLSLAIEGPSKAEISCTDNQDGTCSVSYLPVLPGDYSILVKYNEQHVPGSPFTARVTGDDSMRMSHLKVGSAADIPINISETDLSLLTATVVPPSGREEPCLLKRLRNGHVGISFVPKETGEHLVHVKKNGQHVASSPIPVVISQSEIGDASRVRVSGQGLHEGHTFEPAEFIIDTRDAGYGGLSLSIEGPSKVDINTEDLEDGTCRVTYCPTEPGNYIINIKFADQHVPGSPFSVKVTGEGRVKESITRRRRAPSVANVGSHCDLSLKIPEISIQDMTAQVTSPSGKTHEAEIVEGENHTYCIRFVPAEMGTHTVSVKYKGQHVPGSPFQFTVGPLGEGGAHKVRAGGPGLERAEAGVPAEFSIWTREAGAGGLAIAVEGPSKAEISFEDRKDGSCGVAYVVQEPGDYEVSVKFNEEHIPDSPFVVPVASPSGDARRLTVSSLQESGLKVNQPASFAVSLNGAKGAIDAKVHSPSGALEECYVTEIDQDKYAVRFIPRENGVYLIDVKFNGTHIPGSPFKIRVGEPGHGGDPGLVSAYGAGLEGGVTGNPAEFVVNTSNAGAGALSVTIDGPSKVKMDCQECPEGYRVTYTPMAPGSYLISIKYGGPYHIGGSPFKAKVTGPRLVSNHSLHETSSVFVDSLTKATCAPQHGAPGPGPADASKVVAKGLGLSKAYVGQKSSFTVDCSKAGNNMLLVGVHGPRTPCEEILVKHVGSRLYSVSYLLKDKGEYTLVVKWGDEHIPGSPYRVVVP

As for `O=C1CC[C@@]2(O)[C@H]3Cc4ccc(O)c5c4[C@@]2(CCN3CC2CC2)[C@H]1O5` [naltrexone, 17-(cyclopropylmethyl)-4,5α-epoxy-3,14-dihydroxymorphinan-6-one], in series [1], the dissociation constant Kd was below 5 pM. Besides, in series [2] (1 mg bid, on antidepressant regimen containing a pro-dopaminergic agent, versus placebo, three weeks), the “rates of response on all outcome measures (HAM-D-17, HAM-D-28, MADRS-10, MADRS-15, CGI-S, CGI-I)” value is “higher rates of response”. Also, the persistence of response entry in series [2] (1 mg bid, patients on active drug followed six weeks) is given as “continued during the entire six week trial period”. Further, in series [2] (compared to placebo controls), the “Quality of Life, Enjoyment, and Satisfaction Questionnaire (Q-LES-Q) score” value is listed as “greater improvement”; the “Sheehan Disability Scale (SDS) score” value is reported as “greater improvement”. The “control of periodic limb movements of sleep” value in series [3] is reported as “equivalent control of limb movements at one-half the prior dose of D2/D3 agonists”. Also, the “effects of opioid agonists” value in series [4] is on record as “enhance the effects of opioid agonists”. The “time to remission after initiating” value in the series on patients with depression (Patient #1, about 1 mg naltrexone daily) is given as “About one”. The “duration of maintained remission” value in the series on patients with depression (Patient #1, adjunctive naltrexone 1 mg daily, continuing to present) was “more than 6 months”. Also, in the series on patients with depression (Patient #2), the “duration of maintained response” value is recorded as “over 2 years” and the time to response was at most 2 weeks. Also, the attention entry in the series with patients with depression (Patient #3, Attention Deficit Disorder, naltrexone 1 mg added, within days) is on record as “much improved”. For the same compound, the adverse effects reported entry with patients with depression (Patient #3, naltrexone 1 mg) is listed as “no adverse effects”. Besides, the mood response entry in the series on patients with depression (Patient #3, naltrexone 1 mg added to s-citalopram 15 mg and dextro-amphetamine, within days) is reported as “marked lifting of mood”. Also, the “duration of observation remaining euthymic” value in the series on patients with depression (Patient #4) was “more than two”. Further, the time to remission entry in the series with patients with depression (Patient #5) was “two”. Further, the duration of improvement result in the series with patients with depression (Patient #5, and continuing) is listed as “five”. Besides, in the series with patients with depression (Patient #6), the time to response entry is “one”. Further, in the series with patients with depression (Patient #7), the time to response result was “three”.

As to `O=C1CCc2ccc(OCCCCN3CCN(c4cccc(Cl)c4Cl)CC3)cc2N1` [aripiprazole, 7-{4-[4-(2,3-Dichlorophenyl)piperazin-1-yl]butoxy}-3,4-dihydroquinolin-2(1H)-one], the “earlier response of depression” value in the series on patients with depression (Patient #1, in the past, before naltrexone) is listed as “transiently responded”.

Consider `CCCN[C@H]1CCc2nc(N)sc2C1` [pramipexole, (S)—N^6-propyl-4,5,6,7-tetrahydro-1,3-benzothiazole-2,6-diamine], for which the “benefit in depression before naltrexone” value in the series with patients with depression (Patient #8, pramipexole without naltrexone) is recorded as “limited benefit”.

For orientation: Kd means the concentration at which binding is half-saturated.
